As usually defined, the Kd is a measure of binding affinity in units of concentration.

Read-outs that look alike come from different tables or passages of the source. No end group written: not given here.

Consider 13 substances from patent publication US9234005B2 (priority 2011, dated 2016).

For test [1], the target named is T1, PTPN4-PDZ (Homo sapiens, UniProt P29074, S499G).
T1 sequence (P29074 499-604 S499G): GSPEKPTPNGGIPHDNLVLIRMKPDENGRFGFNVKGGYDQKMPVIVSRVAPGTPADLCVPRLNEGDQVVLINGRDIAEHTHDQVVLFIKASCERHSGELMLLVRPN
The experiment in a line: biochemical.

The target of test [2] is T1, PTPN4-PDZ. In words: biochemical. Format: binding. Also noted: PTPN4-PDZ (residues G499-N604, G499 being a non-native residue due to the TEV cleavage site); GST (N, cleaved yes); made in house; host or cells: Escherichia coli BL21 (DE3) star.
For test [3], the system named is U373MG astrocytoma cells. Format: cell-based, human.
Test [4] deals with neuroblastoma cell line SK-N-SH. Conditions: cited from earlier work.
The mark [5] stands for this setting: Kd for PTPN4-PDZ (dissociation constant, text).

The substance SWERRETEV [SEQ ID NO: 5, SWERRETEV] registered a Kd in test [1] of 2 µM.
The substance SWARVSKETPL [SEQ ID NO: 4, SWARVSKETPL] showed a Kd in test [2] (Kd, affinity for PTPN4-PDZ) of 1.58 µM.
The substance SWELYKSEGDARL [DARL-13, SWELYKSEGDARL] had a Kd in test [2] (Kd, affinity for PTPN4-PDZ) of 1280 µM.
In the case of shepherdin, the “glioblastoma death, in words” value in test [3] is on record as “in a range similar to those obtained with Cyto13-att”.
Regarding SWESHKSGG [Cyto9-Δ], in test [3], the “cell death (% of dead cells among peptide loaded cells)” value is listed as 7%. Besides, the “induction of cell death, in words” value in test [4] is “do not”. Further, the “interaction with PTPN4-PDZ, in words” value in test [2] is “does not interact with PTPN4-PDZ”.
As to “SWESHKSGGQTRL [Cyto13-vir, SWESHKSGGQTRL]”, in test [3], the “cell death (% of dead cells among peptide loaded cells)” value amounted to 8%. Besides, the “induction of cell death, in words” value in test [4] was “do not”. Further, in test [2], the “fold difference in Kd, Cyto13-vir versus Cyto13-att” value stood at 4 fold and the “ΔΔG0=RT ln(Kd(Cyto13-vir)/Kd(Cyto13-att))” value is on record as 0.76 kcal·mol^−1. Also, binding in test [2] (setting [5]) was put at a Kd of 560 µM. Besides, the Kd in test [2] (Kd, affinity for PTPN4-PDZ) was determined as 568 µM.
On to SWEERETEF [SEQ ID NO: 6, SWEERETEF], for which binding in test [1] was put at a Kd of 2.52 µM.
SWEERETEV [SEQ ID NO: 3, SWEERETEV]: in test [1], the affinity, expressed as Kd, was 1.35 µM.
Turning to SWEDRETEV [SEQ ID NO: 7, SWEDRETEV], in test [1], the Kd was 3.88 µM. This Kd lies about 2.9-fold higher than the previous one.
In the case of “SNRRVYKKMPSIESDV-OH [GluN2A-16, SNRRVYKKMPSIESDV]”, in test [3], the “cell death (% of dead cells among peptide loaded cells)” value is on record as 29% and the “increase of cell death compared to Cyto13-att” value is recorded as “two-fold increase”. Moreover, in test [2], the dissociation constant Kd is 42 µM and the “fold increase in affinity for PTPN4-PDZ compared to Cyto13-att (Cyto-att)” value was “four-fold increase”.
In the case of LNLGNDPDRGTSI [GluD2-13, LNLGNDPDRGTSI], binding in test [2] (setting [5]) was characterised by a dissociation constant (Kd) of 128 µM.
With “SWESHKSGGETRL [Cyto13-att, SWESHKSGGETRL]”, the “cell death (% of dead cells among peptide loaded cells)” value in test [3] is given as “more than 14%”. The “induction of cell death, in words” value in test [4] is recorded as “induces cell death”. The substance also registered a Kd in test [2] (Kd, affinity for PTPN4-PDZ) of 157 µM.
As to SWESYRSGGEIRL [EIRL-13, SWESYRSGGEIRL], the “interaction with PTPN4-PDZ, in words” value in test [2] is reported as “low affinity”. The same substance showed a Kd in test [2] (Kd, affinity for PTPN4-PDZ) of 1170 µM.
